Laboratory results taken from patent US20240099301A1, “Disinfecting and Sanitizing Composition, Method for Preparing the Composition and Use of Same” (SOCIEDAD QUÍMICA ECOLÓGICA SPA, priority 2021, published 2024).

Tests used:
[1] = Comparison of products: filmogenic properties; assay type: physicochemical
[2] = Comparison of products: duration of disinfectant effectiveness
[3] = Comparison of products: corrosivity (pH); assay type: physicochemical
[4] = Comparison of products: compatibility with detergents; assay type: physicochemical
[5] = Comparison of products: stability; assay type: physicochemical
people [6] = experiment: Comparison of products: application in the presence of people; design: species or system human
people [7] = experiment: Comparison of products: handling hazards (adverse effects), harm to people; design: species or system human
[8] = room temperature; cited from earlier work

| SMILES | Filmogenic properties [1] | Duration of effectiveness [2] | Corrosivity: irritancy [3] | Corrosivity: pH [3] | Compatibility with detergents [4] | Stability [5] | Application in the presence of people (people [6]) | Handling hazards (adverse effects) (people [7]; contact with skin and eyes) | Handling hazards (adverse effects) (people [7]; exposure to high concentrations) | concentration with bactericidal activity [8] | concentration with bacteriostatic activity [8] |
| --- | --- | --- | --- | --- | --- | --- | --- | --- | --- | --- | --- |
| OCl [Sodium hypochlorite] | No | 1 days | irritant | ~11 | Not compatible. Sodium hypochlorite | Not stable, chlorine solutions | No and ventilation recommended | Liquid chlorine causes severe burns | cause nausea and vomiting. |  |  |
| OO [hydrogen peroxide] |  |  |  |  |  |  |  |  |  | 6% | 3% |
